The values below come from patent publication US11497757B2, “Silanol based therapeutic payloads” (BlinkBio, Inc., priority 2016, dated 2022).

Each structure is given as a SMILES string. pEC50: −log10 of the molar value.

The test system of one assay is KB cells. The experiment in a line: CellTiter-Glo cell viability, washout protocol. The class given is cell-based. To be noted: for pEC50: washout protocol: 2 h incubation, wash, additional 70 h, siloxane based conjugates; for % Kill (48 h): washout protocol. As for the experimental part:
Washout protocol: KB cells in culture were seeded in white clear bottom 96-well tissue culture plate at a density of 5,000 cells per well in a folate free RPMI media with 10% FBS a day prior to compound addition. Cells were counted visually with a hemocytometer and diluted accordingly to obtain the desired density. Cells were allowed to incubate for 24 hours in a humidified CO2 atmosphere in an incubator at 37° C. The spent media was aspirated and replenished with 100 μL of fresh media containing a 3-fold serial dilution of compound with concentrations ranging from 0.3 to 2000 nM and with a final DMSO concentration of 0.1%. Blank wells without compound were also treated with media containing 0.1% DMSO. […] […] At the end of 70 h, the spent media was removed and cells were washed once with fresh media and then suspended 100 μL of PBS. 100 μL of constituted Cell titer-glo reagent was added to each well and luminescence was recorded with a VICTOR plate reader according to manufacturers' protocol.
(In ATP-based viability assays light output follows the ATP content of the culture.)

Assay [1] concerns Folate receptor alpha expressing KB cells. The experiment in a line: Confocal imaging study demonstrating endocytosis and Si-O cleavage. The format is cell-based. To be noted: 50 nM. The procedure:
Example 51 as shown above contains a folate receptor targeting ligand, a spacer moiety, a siloxane core and two different fluorescent dyes (BODIPY and rhodamine) positioned on either side of the siloxane core. Folate receptor alpha expressing KB cells were grown in folic acid free media. The cells were incubated for 30 minutes on ice with 50 nM of Example 51, washed with fresh culture medium and then incubated in media at 37° C. for the desired length of time. The fate of both dyes was simultaneously monitored using confocal microscopy using Zeiss LSM 780 laser scanning microscope.

For orientation: pEC50 means the EC50 on a negative log10 scale, so that one unit is a factor of ten. High values mean a low EC50, low ones a high EC50. Regarding `CC[C@]1(O)C[C@@H]2CN(CCc3c([nH]c4ccccc34)[C@@](C(=O)OC)(c3cc4c(cc3OC)N(C)[C@H]3[C@@](O)(C(=O)NCCC[Si](C)(C)O[Si](C)(C)CSc5ncc(Cn6cc(C[C@H](NC(=O)[C@H](CC(=O)O)NC(=O)[C@H](CC(=O)O)NC(=O)[C@H](CCCNC(=N)N)NC(=O)[C@H](CC(=O)O)NC(=O)CC[C@H](NC(=O)c7ccc(NCc8cnc9nc(N)[nH]c(=O)c9n8)cc7)C(=O)O)C(=O)O)nn6)cn5)[C@H](O)[C@]5(CC)C=CCN6CC[C@]43[C@@H]65)C2)C1` [Example 28], in the assay on KB cells, the pEC50 was approximately 6.81 and the “% Kill (48 h)” value amounted to 86%.

`CC[C@H](C)[C@@H]([C@@H](CC(=O)N1CCC[C@H]1[C@H](OC)[C@@H](C)C(=O)N[C@@H](Cc1ccccc1)C(=O)O)OC)N(C)C(=O)[C@@H](NC(=O)[C@H](C(C)C)N(C)C(=O)CCC[Si](C)(C)O[Si](C)(C)c1cccc(CC(=O)NCCOCCOCCOCCOCCOCCn2cc(COCC(COCc3cn(CCOCCOCCOCCOCCOCCNC(=O)Cc4cccc([Si](C)(C)O[Si](C)(C)CCCC(=O)N(C)[C@H](C(=O)N[C@H](C(=O)N(C)[C@@H]([C@@H](C)CC)[C@@H](CC(=O)N5CCC[C@H]5[C@H](OC)[C@@H](C)C(=O)N[C@@H](Cc5ccccc5)C(=O)O)OC)C(C)C)C(C)C)c4)nn3)(COCc3cn(CCOCCOCCOCCOCCOCCNC(=O)Cc4cccc([Si](C)(C)O[Si](C)(C)CCCC(=O)N(C)[C@H](C(=O)N[C@H](C(=O)N(C)[C@@H]([C@@H](C)CC)[C@@H](CC(=O)N5CCC[C@H]5[C@H](OC)[C@@H](C)C(=O)N[C@@H](Cc5ccccc5)C(=O)O)OC)C(C)C)C(C)C)c4)nn3)NC(=O)CCOCCOCCOCCOCCOCCOCCNC(=O)CC[C@H](NC(=O)c3ccc(NCc4cnc5nc(N)[nH]c(=O)c5n4)cc3)C(=O)O)nn2)c1)C(C)C` [Example 35, Folate-PEG-Adaptor-PhenylSiLinker-TripleAuristatin] had a pEC50 with KB cells of approximately 8.10.

For `CC[C@]1(O)C[C@@H]2C[N@@](CCc3c([nH]c4ccccc34)[C@@](C(=O)OC)(c3cc4c(cc3OC)N(C)[C@H]3[C@@](O)(C(=O)NCCC[Si](C)(C)O[Si](C)(C)CSc5ncc(Cn6cc(COCCOCCOCCOCCOCCOCCNC(=O)CC[C@H](NC(=O)c7ccc(NCc8cnc9nc(N)[nH]c(=O)c9n8)cc7)C(=O)O)nn6)cn5)[C@H](O)[C@]5(CC)C=CCN6CC[C@]43[C@@H]65)C2)C1` [Example 24], in the assay on KB cells, the pEC50 was approximately 6.58 and the “% Kill (48 h)” value was determined as 84%.

In the case of `CCN(CC)c1ccc2c(-c3ccc(S(=O)(=O)NCc4cnc(SC[Si](C)(C)O[Si](C)(C)CCCN5C(=O)CC(SC[C@H](NC(=O)[C@H](CNC(=O)CCC6=[N+]7C(=Cc8c(C)cc(C)n8[B-]7(F)F)C=C6)NC(=O)[C@H](CC(=O)O)NC(=O)CC[C@H](NC(=O)c6ccc(NCc7cnc8nc(N)[nH]c(=O)c8n7)cc6)C(=O)O)C(=O)O)C5=O)nc4)cc3S(=O)(=O)[O-])c3ccc(=[N+](CC)CC)cc-3oc2c1` (some centres unmarked) [Example 51], the “Folate receptor binding on cell surface (colocalization of dyes)” value in assay [1] (t=0) was “bound to the folate receptor on the cell surface”. In assay [1] (t=30 min, 37° C.), the “Cleavage of the siloxane core (color separation of the two dyes)” value is “cleavage of the siloxane core was observed” and the “Endocytosis of intact conjugate into the cell” value was “endocytosis of intact Example 51 into the cell was observed”.
